Test system: Plasmopara viticola
Assay: 72 h preventive treatment of vine plants against vine downy mildew, Abbott efficacy, Tammes and Colby analysis
Assay type: in vivo
[1] = Compound Ia share of the mixture, or Compound Ia alone
[2] = tolylfluanid share of the mixture, or tolylfluanid alone

Q: What does the source list for O=C(NCc1ncc(C(F)(F)F)cc1Cl)c1c(Cl)cccc1Cl [Compound Ia, 2,6-dichloro-N-{[3-chloro-5-(trifluoromethyl)-2-pyridinyl]methyl}benzamide]?
A: ED70: Practical doses for 70% efficacy, dose of Compound Ia [1]: 27 µg/mL; ED90: Practical doses for 90% efficacy, dose of Compound Ia [1]: 65 µg/mL

Q: Which “ED70: Practical doses for 70% efficacy, dose of tolylfluanid” value [2] does the source give for Cc1ccc(N(SC(F)(Cl)Cl)S(=O)(=O)N(C)C)cc1 [Tolylfluanid, N-dichlorofluoromethylthio-N′,N′-dimethyl-N-p-tolylsulfamide] here?
A: 231.4 µg/mL

Q: What about the “ED90: Practical doses for 90% efficacy, dose of tolylfluanid” value [2] of the same molecule?
A: 533.6 µg/mL

Source: patent US20070072829A1, “Fungicidal composition comprising a pyridylmethylbenzamide derivative and a sulfamide derivative” (priority 2003, published 2007)
